Results taken from PMC10427391, “Identification of Cytochrome P450 2E1 as a Novel Target in Glioma and Development of Its Inhibitor as an Anti‐Tumor Agent” (Advanced Science, 2023).
Like-named read-outs stand apart in the source and are kept apart here.

Experiments:
[1] = biological target: T1, CYP2E1 (Homo sapiens, UniProt P05181); test: In vitro inhibition of CYP2E1 (chlorzoxazone as substrate); assay type: biochemical; set-up: A 100 µL microsomal incubation system; from tissue
Protocol: Chlorzoxazone with a concentration of 62.5 µM and inhibitors with different gradient concentrations were selected to plot the inhibition of chlorzoxazone and to calculate the IC50 of the inhibitor. A Lineweaver–Burk curve was used to determine the mechanism and calculate the K i of inhibitors of CYP2E1.
(§1) A 100 µL microsomal incubation system^[ [44] ^] contained probe drugs for each CYP with different series of concentrations, Q11, phosphate buffer, EDTA, magnesium chloride, and substrates (phenacetin for CYP1A2, coumarin for CYP2A6, bupropion for CYP2B6, paclitaxel for CYP2C8, tolbutamide for CYP2C9, omeprazole for CYP2C19, dextromethorphan for CYP2D6, chlorzoxazone for CYP2E1, midazolam for CYP3A4/5). HPLC‐UV and HPLC‐FLD were used to measure the number of metabolites.
Target sequence in this assay (P05181 whole entry): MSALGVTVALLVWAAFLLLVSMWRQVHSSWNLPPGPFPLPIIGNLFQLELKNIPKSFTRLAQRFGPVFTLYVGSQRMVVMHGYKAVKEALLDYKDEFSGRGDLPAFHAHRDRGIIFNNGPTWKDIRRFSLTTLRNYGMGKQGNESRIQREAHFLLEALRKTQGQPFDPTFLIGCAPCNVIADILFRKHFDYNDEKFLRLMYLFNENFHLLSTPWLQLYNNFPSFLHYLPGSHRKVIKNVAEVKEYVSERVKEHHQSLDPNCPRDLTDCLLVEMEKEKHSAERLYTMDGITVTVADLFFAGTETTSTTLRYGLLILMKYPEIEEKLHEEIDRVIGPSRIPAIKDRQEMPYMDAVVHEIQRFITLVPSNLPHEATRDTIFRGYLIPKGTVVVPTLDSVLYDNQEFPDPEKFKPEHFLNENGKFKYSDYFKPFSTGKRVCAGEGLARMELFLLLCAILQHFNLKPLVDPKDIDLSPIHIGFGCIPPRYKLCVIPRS

[2] = Central inhibitory effect; settings: clomethiazole: at a dose that inhibited CYP2E1
[3] = tested on: GL261 cells; test: Migration (wound assay) of GL261 cells in co-culture with microglia/macrophages; settings: 24 h
[4] = tested on: other CYP enzymes (CYP1A2, CYP2B6, CYP2C8, CYP2C9, CYP2C19, CYP2D6, CYP3A4/5); test: Selectivity, microsomal incubation, remaining CYPs; assay type: biochemical; settings: probe substrates
Protocol: as §1

[5] = Long-term Q11 treatment, safety, rats; settings: 12 weeks
[6] = tested on: glioma induced by C6 cells; test: Intracranial orthotopic glioma model induced by C6 cells; settings: SD rat, oral 30 mg kg^−1
[7] = tested on: U251 cells; test: Proliferation of glioma cells in indirect co-culture with microglia/macrophages, U251; settings: co-cultured with primary microglia, RAW 264.7 or THP-1 macrophages
[8] = tested on: HMC‐3 cells; test: HMC-3 cells transfected with CYP2E1 plasmids: PPAR-γ and cytokines; settings: HMC-3 transfected with CYP2E1 plasmids
[9] = tested on: glioma induced by U251‐LUC cells; test: Intracranial orthotopic glioma model induced by U251-LUC cells; settings: for bioluminescence in tumor sites: day 14 after transplantation, Q11 at 10 and 30 mg kg^−1; for brain weight / tumor diameter / tumor volume: endpoint day 36 after transplantation
[10] = tested on: GL261 cells; test: Cell cycle of GL261 cells in co-culture with primary microglia
[11] = In vivo biodistribution / BBB permeability of Q11 (plasma, cortex, hippocampus, HPLC)
[12] = tested on: U251 cells; test: Direct effect on glioma cells (CCK-8), U251; settings: concentrations below 100 µM
[13] = tested on: intracerebral glioma; test: Kaplan–Meier survival of mice with intracerebral glioma; settings: Q11 30 mg kg^−1 vs saline, P log-rank = 0.0017
[14] = tested on: GL261 cells; test: Apoptosis (Annexin V-FITC/PI) of GL261 cells in co-culture with microglia/macrophages
[15] = biological target: T2, CYP2E1 (Rattus norvegicus, UniProt P05182); test: In vivo inhibition of CYP2E1 activity by metabolism of diethylnitrosamine (DEN), self-controlled cross-administration; set-up: species or system rats; settings: DEN 50 mg kg^−1 i.p.
T2 construct: from tissue; host or cells: living rats (whole animal, endogenous enzyme)
T2 sequence (P05182 whole entry): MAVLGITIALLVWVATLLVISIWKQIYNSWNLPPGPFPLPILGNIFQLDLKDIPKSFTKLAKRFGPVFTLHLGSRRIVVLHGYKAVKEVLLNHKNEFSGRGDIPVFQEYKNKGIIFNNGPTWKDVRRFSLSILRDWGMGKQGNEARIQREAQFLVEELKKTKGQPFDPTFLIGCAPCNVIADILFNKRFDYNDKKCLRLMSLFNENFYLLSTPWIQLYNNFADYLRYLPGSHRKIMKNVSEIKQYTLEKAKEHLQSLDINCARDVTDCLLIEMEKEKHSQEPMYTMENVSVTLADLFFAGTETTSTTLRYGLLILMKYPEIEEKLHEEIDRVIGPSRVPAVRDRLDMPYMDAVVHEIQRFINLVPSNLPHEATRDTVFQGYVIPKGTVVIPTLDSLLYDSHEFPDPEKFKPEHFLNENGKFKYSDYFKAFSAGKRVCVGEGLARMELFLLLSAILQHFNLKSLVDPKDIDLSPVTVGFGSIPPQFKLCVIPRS
Protocol: A self‐controlled cross‐administration experiment was designed based on previous report.^[ [45] ^] In the first round of the experiment, a single intraperitoneal injection of diethylnitrosamine at 50 mg kg^−1 was given in the first week. After a 1‐week interval, the second round of the experiment was conducted, where each rat was given Q11 at 6, 30, or 150 mg kg^−1 (i.g), and then, after 5 min, an intraperitoneal injection of diethylnitrosamine at 50 mg kg^−1 was given. Collection of orbital blood was carried out at 2, 7, 15, 30 min and 1, 2, 4, 6, 9, 12, 24, 36, 48, 60 h.

[16] = tested on: GL261 cells; test: Proliferation of glioma cells in indirect co-culture with microglia/macrophages, GL261; settings: co-cultured with primary microglia, RAW 264.7 or THP-1 macrophages
[17] = biological target: T1, CYP2E1; test: Surface plasmon resonance binding of Q11 to CYP2E1 (Biacore 8k); set-up: purchased Cloud-Clone Corp. Wuhan
Protocol: Surface Plasma Resonance (SPR) experiments^[ [43] ^] were carried out using the Biacore system (Biacore 8k, Cytiva). Recombinant CYP2E1 protein was purified by Cloud‐Clone Corp. Wuhan. Running buffer contained PBS (2 mM KH2PO4, 10 mM Na2HPO4, 137 mM NaCl, 2.7 mM KCl) with 0.005% Tween‐20, pH 7.4. CYP2E1 protein was diluted to 25 µg mL^−1 in immobilization buffer and bound to a CM5 chip at about 2000RU. Immobilization buffer contained 10 mM sodium acetate, pH 4.0. Samples of compound Q11 were diluted in running buffer with 125, 62.5, 31.25, 15.625, 7.8, 3.9, 1.95 µM and injected at 30 µL min^−1 for 60 s contact time followed by dissociation for 120 s. The data was fitted with Biacore Insight Evaluation software (Version 2.0).
Target sequence in this assay (P05181 whole entry, species assumed): as the sequence (P05181 whole entry) above

[18] = tested on: glioma induced by GL261 cells; test: Intracranial orthotopic glioma model induced by GL261 cells; settings: C57BL/6 mouse
[19] = Bioavailability and pharmacokinetics of Q11 in rats; assay type: in vivo, SD rats
Protocol: Eight healthy male SD rats were randomly divided into 2 groups (4 rats in each group) using a double‐period self‐cross control principle. The first group was given Q11 (30 mg kg^−1, i.g), and the second group was given Q11 (30 mg kg^−1, i.v.). One week later, a second round of experiments was conducted in which Q11 (30 mg kg^−1, i.v.) was given to the first group of rats and Q11 (30 mg kg^−1, i.g) was given to the second group. Collection of orbital blood was carried out at 0, 2, 7, 15, 30 min and 1, 2, 4, 6, 9, 12, 24 h after Q11 administration.
Thirty healthy male SD rats were randomly divided into three equal groups. Q11 was administrated at 6, 30, or 150 mg kg^−1 (i.g) to these three groups. Collection of orbital blood was carried out at 0, 2, 7, 15, 30 min and 1, 2, 4, 6, 9, 12, 24, 36 h after Q11 administration.

[20] = tested on: C6; test: Direct effect on glioma cells (CCK-8), C6; settings: concentrations below 100 µM
[21] = tested on: inflammatory factors in TME; test: Inflammatory factors in the tumor microenvironment of C6 orthotopic xenograft model; settings: C6 model rats
[22] = tested on: microglia/macrophage of tumor microenvironment; test: Immunohistochemistry of CD206 and CD86 on tumor tissues; settings: Q11 group vs model
Protocol: Paraffin‐embedded specimens were cut into 4‐µm sections. After deparaffinization with xylene and rehydration, antigen retrieval was performed. For immunohistochemistry (IHC), endogenous peroxidase activity was blocked with 3% H2O2 in methanol. Primary antibodies against CYP2E1 (1:200, Abcam, ab28146), Iba‐1 (1:150, Servicebio, China), CD206 (1:150, Servicebio), and CD86 (1:150, Servicebio) were used and results were evaluated blindly by two pathologists and quantified by IPP 6.0 soft.

[23] = tested on: GL261 cells; test: Direct effect on glioma cells (CCK-8), GL261; settings: concentrations below 100 µM
[24] = Long-term Q11 treatment, safety, mice; settings: 26 weeks
[25] = biological target: T3, CYP2A6 (Homo sapiens, UniProt P11509); test: Selectivity, microsomal incubation, CYP2A6 (coumarin as substrate); assay type: biochemical
T3 construct: A 100 µL microsomal incubation system; from tissue
T3 sequence (P11509 1-494): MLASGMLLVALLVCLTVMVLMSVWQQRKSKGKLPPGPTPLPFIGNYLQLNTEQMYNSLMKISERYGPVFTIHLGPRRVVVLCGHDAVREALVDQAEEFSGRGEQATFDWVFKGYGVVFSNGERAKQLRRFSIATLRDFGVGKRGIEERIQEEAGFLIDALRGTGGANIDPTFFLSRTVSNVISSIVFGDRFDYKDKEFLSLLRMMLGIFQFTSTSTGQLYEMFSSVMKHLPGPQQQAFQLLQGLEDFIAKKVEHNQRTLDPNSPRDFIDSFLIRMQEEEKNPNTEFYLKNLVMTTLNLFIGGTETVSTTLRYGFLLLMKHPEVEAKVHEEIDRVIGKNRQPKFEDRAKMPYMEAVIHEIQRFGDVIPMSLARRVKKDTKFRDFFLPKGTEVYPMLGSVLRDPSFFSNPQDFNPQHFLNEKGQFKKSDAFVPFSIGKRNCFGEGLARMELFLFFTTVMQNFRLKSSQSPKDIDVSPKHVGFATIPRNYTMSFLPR
Protocol: as §1

[26] = tested on: primary microglia; test: Primary microglia induced by IL-4 and IL-13: polarization markers and signaling (western blot, immunofluorescence)
Protocol: Tissues and cells were harvested and lysed with RIPA buffer. The protein concentration was determined using a BCA kit. Samples were separated on 10% SDS‐PAGE gels and blotted onto nitrocellulose membranes (Millipore).The membranes were incubated with primary antibodies at 4 °C overnight, washed three times with TBST, and then incubated with HRP‐conjugated anti‐mouse IgG or anti‐rabbit IgG diluted in TBST containing 1% non‐fat milk at room temperature for 1 h. After final washing with TBST, the membranes were developed by using ECL.

[27] = tested on: U251 cells; test: U251 glioma cells with conditioned medium of CYP2E1-overexpressing HMC-3 cells (proliferation, migration, apoptosis)
[28] = tested on: GBM; test: Intracranial glioma models overall (rats, mice, nude mice)
[29] = IL-4 and IL-13 10 ng mL^−1, 24 h
[30] = Q11 medium- and high-dose groups vs IL-4/IL-13 group

Cc1ncsc1CCCl [clomethiazole, reference compound]
IC50 ([1]; chlorzoxazone 62.5 µM, read-out: IC50 of inhibition on CYP2E1): 39.3 µM | central inhibitory effect [2]: significant central inhibitory effect

CC(=O)c1scnc1C [Compound Q11, 1‐(4‐methyl‐5‐thialzolyl) ethanone]
migration of GL261 cells [3]: restrained migration | inhibition of other CYP enzymes [4]: no inhibition | IC50 [1]: 1.64 µM | Ki [1]: 0.897 µM | type of inhibition of CYP2E1 ([1]; Lineweaver–Burk plot): competitive‐noncompetitive mixed‐type inhibitor | adverse reactions on long-term treatment [5]: no adverse reactions | central inhibitory effect [2]: does not show a central inhibitory effect | growth of tumor (brain weight, tumor diameter, tumor weight) [6]: significantly suppressed | proliferation of U251 cells in co-culture [7]: significantly inhibited | changes caused by CYP2E1 overexpression (PPAR-γ, IL-4, IL-10, TGFβ up; IL-1α, IL-1β down) [8]: significantly blocked the changes | bioluminescence in tumor sites [9]: lesser bioluminescence | brain weight [9]: markedly suppressed | tumor diameter [9]: markedly suppressed | tumor volume [9]: markedly suppressed | cell cycle of GL261 cells [10]: arrested the cell cycle in S phase | plasma concentration at peak ([11]; SD rats, 30 mg kg^−1 intragastric, about 1 h): 14.75 ng/mL | blood brain barrier (BBB) permeability ([11]; SD rats, 30 mg kg^−1 intragastric, cortex and hippocampus parallel to plasma): capable of penetrating BBB | Tmax ([11]; female, SD, rat, in vivo, po, 30 mg/kg): ~1 h | concentration at 4 h ([11]; female, SD, rat, plasma, oral, 30 mg kg^−1): 9.21 ng/mL | direct killing of U251 cells [12]: did not directly kill | mean survival time [13]: 32 days | apoptosis of GL261 cells [14]: promoted apoptosis | inhibition ratio in terms of clearance (CL) of diethylnitrosamine (DEN) ([15]; Q11 6 mg kg^−1 i.g.): 63.98% | inhibition ratio in terms of clearance (CL) of diethylnitrosamine (DEN) ([15]; Q11 30 mg kg^−1 i.g.): 79.63% | inhibition ratio in terms of clearance (CL) of diethylnitrosamine (DEN) ([15]; Q11 150 mg kg^−1 i.g.): 85.42% | proliferation of GL261 cells in co-culture [16]: significantly inhibited | Kd [17]: 7 µM | growth of glioma (brain weight, tumor diameter, volumes) [18]: significantly inhibited | Tmax ([19]; male, SD, rat, blood, 30 mg kg^−1, oral administration, read-out: mean T max): 0.45 h | half-life ([19]; male, SD, rat, blood, 30 mg kg^−1, oral administration, read-out: mean t 1/2 (converted)): 3.05 h | bioavailability ([19]; male, SD, rat, blood, oral vs intravenous, 30 mg kg^−1): 94.7% | dose dependence of pharmacokinetic parameters ([19]; oral, dose 6 to 150 mg kg^−1): proportional changes | direct killing of C6 cells [20]: did not directly kill | M1-like inflammatory factors (IL-1β, TNF-α) [21]: increased | M2-like inflammatory factors (IL-4, TGF-β, IL-10, VEGFB, IL-6) [21]: significantly decreased | CD86 (M1 marker) positive cells [22]: increased significantly | number of CD206 (M2 marker) positive cells [22]: significantly reduced | direct killing of GL261 cells [23]: did not directly kill | adverse reactions on long-term treatment [24]: no adverse reactions | IC50 [25]: 76.2 µM | Arg-1 (M2 marker) expression [26, 29]: significantly reduced | iNOS (M1 marker) expression [26, 29]: increased | p-STAT-1 and p-NF-κB [26, 30]: significantly increased | p-STAT-3 and p-STAT-6 [26, 30]: significantly decreased | PPAR-γ expression ([26]; after induction by IL-4 and IL-13): significantly inhibited | tumor-promoting effects of upregulating CYP2E1 in HMC-3 (proliferation, migration, apoptosis of U251) [27]: reversed | tumor-induced weight loss ([28]; intracranial xenografts): obviously improved | inhibitory effect on glioma growth compared with TMZ ([28]; orthotopic glioma models): superior to that of TMZ

Cn1nnc2c(C(N)=O)ncn2c1=O [TMZ, temozolomide, reference compound]
bioluminescence in tumor sites [9]: lesser bioluminescence | brain weight [9]: markedly suppressed | tumor diameter [9]: markedly suppressed | tumor volume [9]: markedly suppressed

O=C(Nc1ccccc1)c1cc([N+](=O)[O-])ccc1Cl [GW9662, reference compound]
PPAR-γ expression in presence of rosiglitazone ([26]; antagonist of PPARγ, blocked the ability of rosiglitazone): downregulated

CN(CCOc1ccc(CC2SC(=O)NC2=O)cc1)c1ccccn1 (centres unmarked) [Rosiglitazone, reference compound]
effect on the action of Q11 (PPAR-γ dependence) ([26]; agonist of PPAR-γ added to Q11): completely blocked the effect of Q11
